Laboratory results published in paper PMC10467532, “Design, synthesis, and biological evaluation of thiazole/thiadiazole carboxamide scaffold-based derivatives as potential c-Met kinase inhibitors for cancer treatment” (Journal of Enzyme Inhibition and Medicinal Chemistry, 2023).
One block for each compound: values may come before it.

Assays:
c-Met Y1230H = target: T1, c-Met Y1230H (Homo sapiens, UniProt P08581, Y1230H); test: Tyrosine kinase HTRF assay, c-Met Y1230H; type: biochemical
T1 construct: purchased Invitrogen (Waltham, MA)
Procedure: (§1) On the other hand, comprehensive understanding the off-target kinase inhibition is critical for any kinase inhibitors, particularly to help explain the correlations between efficacy and potential side effects. […] The reactions were quenched by addition 10 µL mixed detection solution. […] The inhibition rate (%) was calculated using the following equation: inhibition rate = [(activity of enzyme with tested compound – min)/(max – min)] × 100 (max: the enzyme activity in the presence of enzyme, substrates and cofactors; min: the enzyme activity in the presence of substrates, cofactors and in the absence of enzyme). IC50 value was calculated from the inhibition curve using GraphPad Prism 5.0 software (La Jolla, CA).

MDA-MB-231 = test: MTT antiproliferative assay, MDA-MB-231; settings: Homo sapiens, MDA-MB-231, 48 h, read-out: IC50 MDA-MB-231
Procedure: (§2) MTT assay was used to determine the cytotoxic activity of target compounds against different cell lines. […] Then, the cells were treated with five doses of test compounds (pre-dissolved in DMSO), and 0.1% DMSO was used as a negative control. […] The results expressed as IC50 were the average of three determinations calculated by using the Bacus Laboratories Incorporated Slide Scanner (Bliss) software.

c-Met H1094R = target: T2, c-Met H1094R (Homo sapiens, UniProt P08581, H1094R); test: Tyrosine kinase HTRF assay, c-Met H1094R; type: biochemical
T2 construct: purchased Invitrogen (Waltham, MA)
Procedure: as §1

Flt-4 = target: T3, Flt-4 (Homo sapiens, UniProt P35916); test: Tyrosine kinase HTRF assay, Flt-4; type: biochemical
T3 construct: purchased Invitrogen (Waltham, MA)
Procedure: as §1

PDGFRβ = target: T4, PDGFRβ (Homo sapiens, UniProt P09619); test: Tyrosine kinase HTRF assay, PDGFRβ; type: biochemical
T4 construct: purchased Invitrogen (Waltham, MA)
Procedure: as §1

HT-29 = test: MTT antiproliferative assay, HT-29; settings: Homo sapiens, HT-29, 48 h, read-out: IC50 HT-29
Procedure: as §2

HUVEC = test: MTT cytotoxicity assay, normal HUVEC cells; settings: Homo sapiens, 48 h, read-out: IC50 HUVEC
Procedure: as §2

[1] = test system: c-Met phosphorylation in MKN-45 cells; test: Western blotting analysis of c-Met phosphorylation; type: cell-based, human; settings: 24 h, 0, 2.5, 5.0, and 10.0 μM
Procedure: To obtain further insight into the mechanism of 51am induced apoptosis, western blot assay was carried out to investigate the effect of 51am on the phosphorylation of c-Met in living cells. MKN-45 cells were treated with 51am for 24 h in a series of concentrations (0, 2.5, 5.0, and 10.0 μM) using DMSO as the negative control, and the level of GAPDH served as the loading control.
MKN-45 cells were incubated with the test compound at various concentrations for 24 h. After incubation, cells were harvested in PBS solution containing proteinase inhibitors and phosphatase inhibitors, and then sonicated. Whole cell lysates were separated by sodium dodecyl sulphate-polyacrylamide gel electrophoresis (SDS-PAGE) and transferred to nitrocellulose membrane (Beyotime Biotechnology, Shanghai, China). The membrane was incubated with primary antibody followed by labelling with horseradish peroxidase (HRP)-conjugated secondary antibody (Beyotime Biotechnology, Shanghai, China). The blots were developed with enhanced chemiluminescence and visualised by an LAS4000 imager (Fuji Photo Film, Minato City, Japan).

c-Met Y1235D = target: T5, c-Met Y1235D (Homo sapiens, UniProt P08581, Y1235D); test: Tyrosine kinase HTRF assay, c-Met Y1235D; type: biochemical
T5 construct: purchased Invitrogen (Waltham, MA)
Procedure: as §1

Flt-3 = target: T6, Flt-3 (Homo sapiens, UniProt P36888); test: Tyrosine kinase HTRF assay, Flt-3; type: biochemical
T6 construct: purchased Invitrogen (Waltham, MA)
T6 sequence (P36888 27-993): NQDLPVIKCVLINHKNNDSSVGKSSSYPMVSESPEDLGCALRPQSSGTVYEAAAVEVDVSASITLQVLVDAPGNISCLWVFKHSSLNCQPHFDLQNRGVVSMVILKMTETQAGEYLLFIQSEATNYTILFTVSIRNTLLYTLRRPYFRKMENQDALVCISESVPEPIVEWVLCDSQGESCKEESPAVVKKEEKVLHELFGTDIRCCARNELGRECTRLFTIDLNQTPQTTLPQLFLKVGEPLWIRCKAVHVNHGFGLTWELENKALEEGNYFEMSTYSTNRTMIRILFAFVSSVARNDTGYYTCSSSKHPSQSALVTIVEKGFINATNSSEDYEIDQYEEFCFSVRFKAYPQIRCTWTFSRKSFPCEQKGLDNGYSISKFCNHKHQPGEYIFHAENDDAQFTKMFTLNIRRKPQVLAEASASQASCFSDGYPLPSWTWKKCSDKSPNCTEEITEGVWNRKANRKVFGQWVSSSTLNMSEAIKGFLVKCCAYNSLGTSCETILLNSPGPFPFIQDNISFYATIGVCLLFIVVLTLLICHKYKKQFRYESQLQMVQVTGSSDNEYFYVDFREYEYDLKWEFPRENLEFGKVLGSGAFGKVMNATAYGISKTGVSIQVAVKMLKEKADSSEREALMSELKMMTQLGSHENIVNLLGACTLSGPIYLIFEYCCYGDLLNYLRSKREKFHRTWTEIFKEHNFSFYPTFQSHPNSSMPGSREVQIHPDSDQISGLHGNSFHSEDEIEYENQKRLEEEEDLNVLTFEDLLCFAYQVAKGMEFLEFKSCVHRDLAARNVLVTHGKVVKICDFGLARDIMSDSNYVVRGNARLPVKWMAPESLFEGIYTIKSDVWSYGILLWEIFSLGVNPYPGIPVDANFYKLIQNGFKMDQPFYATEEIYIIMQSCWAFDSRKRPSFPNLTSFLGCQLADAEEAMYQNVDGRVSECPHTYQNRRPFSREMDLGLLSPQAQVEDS
Procedure: as §1

EGFR = target: T7, EGFR (Homo sapiens, UniProt P00533); test: Tyrosine kinase HTRF assay, EGFR; type: biochemical
T7 construct: purchased Invitrogen (Waltham, MA)
Procedure: as §1

c-Met = target: T8, c-Met (Homo sapiens, UniProt P08581); test: In vitro c-Met enzymatic assay (HTRF); type: biochemical; settings: HTRF assay; mean ± SD, triplicate; read-out: IC50 against c-Met
T8 construct: purchased Invitrogen (Waltham, MA)
T8 sequence (P08581 25-1390): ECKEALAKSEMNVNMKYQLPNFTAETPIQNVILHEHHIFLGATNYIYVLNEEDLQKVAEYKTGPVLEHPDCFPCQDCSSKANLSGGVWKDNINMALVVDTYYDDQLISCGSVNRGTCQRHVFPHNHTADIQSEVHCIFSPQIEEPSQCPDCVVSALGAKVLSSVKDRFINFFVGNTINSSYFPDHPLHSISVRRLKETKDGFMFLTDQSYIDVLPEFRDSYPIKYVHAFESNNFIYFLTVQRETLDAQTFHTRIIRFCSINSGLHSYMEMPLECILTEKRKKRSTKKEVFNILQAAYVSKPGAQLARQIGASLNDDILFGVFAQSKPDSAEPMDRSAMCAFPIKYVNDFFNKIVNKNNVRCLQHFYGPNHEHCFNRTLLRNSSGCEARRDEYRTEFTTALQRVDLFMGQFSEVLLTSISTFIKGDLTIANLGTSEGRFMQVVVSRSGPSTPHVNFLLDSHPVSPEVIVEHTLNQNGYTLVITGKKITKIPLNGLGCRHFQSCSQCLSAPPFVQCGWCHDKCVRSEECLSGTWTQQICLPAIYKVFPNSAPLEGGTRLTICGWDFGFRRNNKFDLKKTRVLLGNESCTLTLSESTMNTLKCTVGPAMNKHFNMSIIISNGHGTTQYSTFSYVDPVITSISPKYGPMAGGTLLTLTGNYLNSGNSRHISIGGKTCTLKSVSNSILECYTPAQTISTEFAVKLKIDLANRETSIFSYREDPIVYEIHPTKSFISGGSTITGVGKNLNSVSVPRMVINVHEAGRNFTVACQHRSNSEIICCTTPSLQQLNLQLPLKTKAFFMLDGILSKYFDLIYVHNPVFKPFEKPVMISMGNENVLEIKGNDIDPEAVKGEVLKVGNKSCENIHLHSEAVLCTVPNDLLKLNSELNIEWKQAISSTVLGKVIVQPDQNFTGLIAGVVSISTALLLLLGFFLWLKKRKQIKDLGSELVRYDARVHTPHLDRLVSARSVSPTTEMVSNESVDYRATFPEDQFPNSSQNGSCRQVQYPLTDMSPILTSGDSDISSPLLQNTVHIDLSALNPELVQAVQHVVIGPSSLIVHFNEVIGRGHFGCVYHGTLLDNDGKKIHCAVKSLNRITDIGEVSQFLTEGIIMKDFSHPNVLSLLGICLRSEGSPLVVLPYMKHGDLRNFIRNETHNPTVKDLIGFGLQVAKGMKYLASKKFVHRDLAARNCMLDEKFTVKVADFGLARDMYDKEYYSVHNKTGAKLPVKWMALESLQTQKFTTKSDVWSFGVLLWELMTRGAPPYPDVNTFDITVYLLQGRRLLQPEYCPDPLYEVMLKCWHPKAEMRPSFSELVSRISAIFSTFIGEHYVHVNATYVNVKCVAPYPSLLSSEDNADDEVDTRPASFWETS
Procedure: Inhibition of target compounds on c-Met kinase activity was measured by using the homogeneous time-resolved fluorescence (HTRF) assay.
The tyrosine kinases inhibitory activities of target compounds were evaluated in 384-well microtiter plates using purified kinases purchased from Invitrogen (Waltham, MA) by homogeneous time-resolved fluorescence (HTRF) assay. The HTRF KinEASE TK kit was performed according to the instructions. After the kinases and test compounds were incubated at 25–30 °C for 5 min, the kinase reactions were initiated by addition of 39 μL of kinase reaction buffer solution and incubated at 25–30 °C for 30 min. The reactions were quenched by addition 10 µL mixed detection solution. […] The inhibition rate (%) was calculated using the following equation: inhibition rate = [(activity of enzyme with tested compound – min)/(max – min)] × 100 (max: the enzyme activity in the presence of enzyme, substrates and cofactors; min: the enzyme activity in the presence of substrates, cofactors and in the absence of enzyme). IC50 value was calculated from the inhibition curve using GraphPad Prism 5.0 software (La Jolla, CA).

FHC = test: MTT cytotoxicity assay, normal FHC cells; settings: Homo sapiens, 48 h, read-out: IC50 FHC
Procedure: as §2

Ron = target: T9, Ron (Homo sapiens, UniProt Q04912); test: Tyrosine kinase HTRF assay, Ron; type: biochemical
T9 construct: purchased Invitrogen (Waltham, MA)
Procedure: as §1

c-Met M1250T = target: T10, c-Met M1250T (Homo sapiens, UniProt P08581, M1250T); test: Tyrosine kinase HTRF assay, c-Met M1250T; type: biochemical
T10 construct: purchased Invitrogen (Waltham, MA)
T10 sequence (P08581 25-1390 M1250T): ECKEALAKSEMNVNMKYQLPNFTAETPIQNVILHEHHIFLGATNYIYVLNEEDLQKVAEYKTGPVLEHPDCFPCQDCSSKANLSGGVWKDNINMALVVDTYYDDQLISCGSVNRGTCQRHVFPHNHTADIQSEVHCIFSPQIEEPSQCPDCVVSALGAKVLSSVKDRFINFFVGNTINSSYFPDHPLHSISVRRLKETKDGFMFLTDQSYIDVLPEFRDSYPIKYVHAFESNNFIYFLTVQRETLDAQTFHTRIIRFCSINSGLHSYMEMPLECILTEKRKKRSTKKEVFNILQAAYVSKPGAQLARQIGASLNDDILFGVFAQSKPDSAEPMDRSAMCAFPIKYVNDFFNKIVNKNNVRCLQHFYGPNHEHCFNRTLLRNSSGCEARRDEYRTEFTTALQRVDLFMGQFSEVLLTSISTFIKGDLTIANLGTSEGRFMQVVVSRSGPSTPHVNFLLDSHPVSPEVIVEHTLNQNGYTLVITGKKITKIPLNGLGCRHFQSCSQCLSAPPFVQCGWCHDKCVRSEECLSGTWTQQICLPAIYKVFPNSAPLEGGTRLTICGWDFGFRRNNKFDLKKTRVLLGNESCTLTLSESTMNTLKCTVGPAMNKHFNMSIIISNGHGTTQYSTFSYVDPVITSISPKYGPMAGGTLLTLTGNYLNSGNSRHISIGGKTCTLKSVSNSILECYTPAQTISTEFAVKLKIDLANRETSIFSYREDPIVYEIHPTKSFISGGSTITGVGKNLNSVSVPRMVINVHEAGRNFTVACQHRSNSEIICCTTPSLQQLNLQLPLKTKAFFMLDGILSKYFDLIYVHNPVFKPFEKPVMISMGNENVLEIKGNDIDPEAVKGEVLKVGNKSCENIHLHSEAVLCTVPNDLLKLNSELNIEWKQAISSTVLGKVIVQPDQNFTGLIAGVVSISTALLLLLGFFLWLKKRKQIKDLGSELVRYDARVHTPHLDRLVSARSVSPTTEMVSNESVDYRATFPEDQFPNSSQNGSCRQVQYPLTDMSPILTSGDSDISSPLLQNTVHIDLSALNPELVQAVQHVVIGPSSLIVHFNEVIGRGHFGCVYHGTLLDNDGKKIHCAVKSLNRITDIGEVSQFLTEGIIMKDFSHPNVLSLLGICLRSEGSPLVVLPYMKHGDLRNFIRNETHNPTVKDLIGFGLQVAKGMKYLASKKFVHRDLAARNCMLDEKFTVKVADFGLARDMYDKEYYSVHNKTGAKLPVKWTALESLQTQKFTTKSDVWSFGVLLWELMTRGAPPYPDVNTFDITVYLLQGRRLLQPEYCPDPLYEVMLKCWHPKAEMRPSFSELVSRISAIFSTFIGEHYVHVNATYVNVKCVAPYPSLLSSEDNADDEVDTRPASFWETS
Procedure: as §1

PDGFRα = target: T11, PDGFRα (Homo sapiens, UniProt P16234); test: Tyrosine kinase HTRF assay, PDGFRα; type: biochemical
T11 construct: purchased Invitrogen (Waltham, MA)
Procedure: as §1

VEGFR-2 = target: T12, VEGFR-2 (Homo sapiens, UniProt P35968); test: Tyrosine kinase HTRF assay, VEGFR-2; type: biochemical
T12 construct: purchased Invitrogen (Waltham, MA)
Procedure: as §1

c-kit = target: T13, c-kit (Homo sapiens, UniProt P10721); test: Tyrosine kinase HTRF assay, c-kit; type: biochemical
T13 construct: purchased Invitrogen (Waltham, MA)
Procedure: as §1

MKN-45 cells = test: Apoptosis by Annexin V/PI double staining, flow cytometry; settings: 24 h, control 6.02%
Procedure: Apoptosis was detected by an Annexin V/propidium iodide (PI) double staining kit (Beyotime Biotechnology, Shanghai, China). […] Cells were harvested by trypsinisation and washed with ice-cold PBS solution. Cells were labelled with annexin V and PI and incubated at room temperature for 30 min in the dark. The labelled cells were analysed by a FACScan flow cytometer (Becton Dickinson, Franklin Lakes, NJ).

c-Met D1228H = target: T14, c-Met D1228H (Homo sapiens, UniProt P08581, D1228H); test: Tyrosine kinase HTRF assay, c-Met D1228H; type: biochemical
T14 construct: purchased Invitrogen (Waltham, MA)
T14 sequence (P08581 25-1390 D1228H): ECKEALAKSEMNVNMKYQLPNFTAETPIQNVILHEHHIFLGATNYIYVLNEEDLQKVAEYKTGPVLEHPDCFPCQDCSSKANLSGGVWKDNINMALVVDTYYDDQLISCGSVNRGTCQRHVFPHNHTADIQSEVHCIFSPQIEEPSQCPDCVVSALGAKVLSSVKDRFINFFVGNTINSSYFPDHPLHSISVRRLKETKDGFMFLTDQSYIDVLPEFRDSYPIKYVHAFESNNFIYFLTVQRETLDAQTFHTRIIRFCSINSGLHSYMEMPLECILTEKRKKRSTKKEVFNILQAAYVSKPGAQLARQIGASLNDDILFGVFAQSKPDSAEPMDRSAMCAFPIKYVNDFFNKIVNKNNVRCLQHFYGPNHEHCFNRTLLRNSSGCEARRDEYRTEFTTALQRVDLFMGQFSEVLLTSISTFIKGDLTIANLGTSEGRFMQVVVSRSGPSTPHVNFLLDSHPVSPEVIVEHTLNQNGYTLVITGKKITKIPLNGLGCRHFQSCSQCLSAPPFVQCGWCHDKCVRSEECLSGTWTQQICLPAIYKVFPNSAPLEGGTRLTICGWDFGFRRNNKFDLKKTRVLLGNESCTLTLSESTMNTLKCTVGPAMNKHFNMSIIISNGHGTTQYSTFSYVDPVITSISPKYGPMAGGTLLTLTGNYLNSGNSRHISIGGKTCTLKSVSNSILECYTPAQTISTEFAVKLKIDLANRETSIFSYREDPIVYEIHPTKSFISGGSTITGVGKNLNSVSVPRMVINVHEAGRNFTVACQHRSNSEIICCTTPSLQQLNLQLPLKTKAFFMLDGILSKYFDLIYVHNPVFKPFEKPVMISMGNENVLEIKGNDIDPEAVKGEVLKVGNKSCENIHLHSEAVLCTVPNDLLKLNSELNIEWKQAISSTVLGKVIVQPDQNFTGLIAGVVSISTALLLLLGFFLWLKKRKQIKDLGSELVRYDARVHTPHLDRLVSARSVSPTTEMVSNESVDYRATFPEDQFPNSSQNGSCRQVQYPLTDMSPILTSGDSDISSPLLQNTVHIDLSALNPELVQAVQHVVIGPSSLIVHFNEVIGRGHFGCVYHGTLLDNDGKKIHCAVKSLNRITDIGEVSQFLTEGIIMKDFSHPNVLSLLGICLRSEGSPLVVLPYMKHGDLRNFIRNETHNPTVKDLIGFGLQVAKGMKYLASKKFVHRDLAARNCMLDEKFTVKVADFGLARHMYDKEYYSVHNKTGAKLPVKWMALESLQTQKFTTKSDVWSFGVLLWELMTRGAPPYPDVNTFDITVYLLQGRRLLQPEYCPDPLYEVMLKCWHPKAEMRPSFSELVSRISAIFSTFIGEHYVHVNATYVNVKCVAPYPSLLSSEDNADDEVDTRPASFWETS
Procedure: as §1

[2] = test system: PDGFRα, PDGFRβ, VEGFR-2, and Flt-4; test: Kinase selectivity relative to c-Met; type: biochemical
Procedure: as §1

MKN-45 = test: MTT antiproliferative assay, MKN-45; settings: Homo sapiens, MKN-45, 48 h, read-out: IC50 MKN-45
Procedure: as §2

[3] = Pharmacokinetic study in BALB/c mice; type: in vivo; settings: male, mouse, plasma
Procedure: Identification of drugs with an acceptable balance of potency, physical properties, and pharmacokinetics (PK) has always been a challenge that often hinders evaluation of the compounds in xenograft models and therapeutic use in clinical practice. Therefore, the PK profile of compound 51am was evaluated in BALB/c mice after intravenous (i.v.) injection and oral administration (p.o.) because of its excellent in vitro activity. […] Based on the good overall PK profile, 51am could be a potential candidate for cancer therapy.
The experimental procedures and the animal use and care protocols were approved by the Committee on Ethical Use of Animals of Shenzhen Second People’s Hospital. Each male BALB/c mice received a single compound 51am as a solution in PEG 400/water (70:30) by either oral route (10 mg/kg) or i.v. route (1.5 mg/kg). Blood samples were collected into the microcentrifuge tube containing heparin at time points 0 (prior to dosing) 5, 10, 20, 30, 60, 180, 360, 480, 600, 720, 1080, and 1440 min after dosing. The blood samples were centrifuged; the obtained plasma was separated and stored at –20 °C. All samples for 51am were measured by liquid chromatography–tandem mass spectrometry (LC/MS/MS).

A549 = test: MTT antiproliferative assay, A549; settings: Homo sapiens, A549, 48 h, read-out: IC50 A549
Procedure: as §2

[4] = test system: c-Met and its downstream protein Akt in MDA-MB-231 cells; set-up: method as in earlier work; settings: cited from earlier work

Structure (SMILES): COc1cc2c(Oc3ccc(NC(=O)C4(C(=O)Nc5ccc(F)cc5)CC4)cc3F)ccnc2cc1OCCCN1CCOCC1 [Foretinib, reference compound]
IC50 (MDA-MB-231): 890 ± 140 nM
IC50 (HT-29): 370 ± 50 nM
IC50 (HUVEC): 680 ± 90 nM
IC50 (FHC): 4060 ± 750 nM
percentage of apoptotic cells (MKN-45 cells; MKN-45, 1.2 μM): 41.21%
IC50 (MKN-45): 58 ± 6 nM
IC50 (A549): 450 ± 50 nM

Structure (SMILES): Cn1cc(-c2ccc3nnc(Sc4ccc5ncccc5c4)n3n2)cn1 [SGX523]
inhibition of phosphorylation of c-Met and Akt [4]: effectively inhibited the phosphorylation of c-Met and its downstream protein Akt

Continued, in another order:

IC50 (c-Met Y1230H): 45.8 nM
IC50 (MDA-MB-231): 3940 ± 1320 nM
IC50 (c-Met H1094R): 93.6 nM
IC50 (Flt-4): 276 nM
IC50 (PDGFRβ): 513 nM
IC50 (HT-29): 680 ± 90 nM
IC50 (c-Met Y1235D): 54.2 nM
IC50 (Flt-3): 6.12 nM
IC50 (EGFR): > 10000 nM
IC50 (c-Met): 2.54 ± 0.49 nM
IC50 (Ron): 3.83 nM
IC50 (c-Met M1250T): 26.5 nM
IC50 (PDGFRα): 425 nM
IC50 (VEGFR-2): 527 nM
IC50 (c-kit): 4.94 nM
IC50 (c-Met D1228H): 29.4 nM
fold less potent than against c-Met [2]: 108–207 fold
IC50 (MKN-45): 92 ± 6 nM
AUC(0-inf) ([3]; iv, i.v. (1.5 mg/kg)): 2500 ng·h/mL
Cmax ([3]; iv, i.v. (1.5 mg/kg)): 552 ng/mL
half-life ([3]; iv, i.v. (1.5 mg/kg)): 3.2 h
clearance ([3]; iv, i.v. (1.5 mg/kg), CL = dose/AUCi.v.): 10 mL/min/kg
bioavailability ([3]; oral, p.o. (10 mg/kg) vs i.v. (1.5 mg/kg), read-out: F (oral bioavailability)): 69%
AUC(0-inf) ([3]; po, p.o. (10 mg/kg)): 11500 ng·h/mL
Cmax ([3]; po, p.o. (10 mg/kg)): 1760 ng/mL
Tmax ([3]; po, p.o. (10 mg/kg)): 4.1 h
half-life ([3]; po, p.o. (10 mg/kg)): 5.6 h
IC50 (A549): 830 ± 360 nM
Structure (SMILES): O=C(Nc1ccc(Oc2ccnc(Cl)c2Cl)c(F)c1)c1nc(-c2ccc(F)c(Cl)c2)cs1 [Compound 51am, 4-(3-Chloro-4-fluorophenyl)-N-(4-((2,3-dichloropyridin-4-yl)oxy)-3-fluorophenyl)thiazole-2-carboxamide]
IC50 (HUVEC): 2540 ± 460 nM
effect on c-Met phosphorylation (western blot) [1]: inhibited c-Met phosphorylation in a dose-dependent manner
IC50 (FHC): 8630 ± 1520 nM
percentage of apoptotic cells (MKN-45 cells; MKN-45, 0.4 μM): 14.74%
percentage of apoptotic cells (MKN-45 cells; MKN-45, 0.8 μM): 19.83%
percentage of apoptotic cells (MKN-45 cells; MKN-45, 1.2 μM): 38.54%

IC50 (MDA-MB-231): 28600 ± 1850 nM
IC50 (HT-29): 14300 ± 2130 nM
melting point: 157 to 159 °C
IC50 (c-Met): 31.5 ± 4.25 nM
IC50 (MKN-45): 3460 ± 750 nM
IC50 (A549): 8650 ± 1720 nM
Structure (SMILES): Cc1ccc(-c2csc(C(=O)Nc3ccc(Oc4ccnc(Cl)c4)c(F)c3)n2)cc1 [Compound 51x, N-(4-((2-Chloropyridin-4-yl)oxy)-3-fluorophenyl)-4-(4-methylphenyl)thiazole-2-carboxamide]
IC50 (HUVEC): 30800 ± 2430 nM
IC50 (FHC): 43400 ± 3680 nM

IC50 (MDA-MB-231): 20500 ± 3140 nM
IC50 (HT-29): 15600 ± 2510 nM
melting point: 120 to 122 °C
IC50 (c-Met): 45.5 ± 6.28 nM
IC50 (MKN-45): 4050 ± 1120 nM
IC50 (A549): 11300 ± 1960 nM
Structure (SMILES): COc1ccc(-c2csc(C(=O)Nc3ccc(Oc4ccnc(Cl)c4)c(F)c3)n2)cc1OC [Compound 51z, N-(4-((2-Chloropyridin-4-yl)oxy)-3-fluorophenyl)-4-(3,4-dimethoxyphenyl)thiazole-2-carboxamide]
IC50 (HUVEC): 26500 ± 3840 nM
IC50 (FHC): > 100000 nM
